# Measured values from ChEMBL document CHEMBL1201862, “PubChem BioAssay data set” (2004).
#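 Briefly, cells in 96-well plates were exposed to five compound concentrations for 48 h, and endpoints were estimated by linear interpolation. At the GI50, growth is halved.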 Activity calls are given as the source filed them. Cut-off read from the data, not from the text of the source: active = GI50 up to about 1.1 µM and inactive = higher.
# Key:
# Assay in all cases: NCI anticancer screen, dose series, 48 h
# COLO 205 = test system: COLO 205
# UACC-62 = test system: UACC-62
# IGROV-1 = test system: IGROV-1
# UO-31 = test system: UO-31
# SK-OV-3 = test system: SK-OV-3
# A549 = test system: A549
# SNB-19 = test system: SNB-19
# NCI-H23 = test system: NCI-H23
# U-251 = test system: U-251
# SK-MEL-5 = test system: SK-MEL-5
# SF-268 = test system: SF-268
# TK-10 = test system: TK-10
# HT-29 = test system: HT-29
# K562 = test system: K562
# OVCAR-3 = test system: OVCAR-3
# OVCAR-5 = test system: OVCAR-5
# KM12 = test system: KM12
# NCI-H460 = test system: NCI-H460
# SF-539 = test system: SF-539
# SW-620 = test system: SW-620
Structure (SMILES),GI50 (COLO 205),GI50 (UACC-62),GI50 (IGROV-1),GI50 (UO-31),GI50 (SK-OV-3),GI50 (A549),GI50 (SNB-19),GI50 (NCI-H23),GI50 (U-251),GI50 (SK-MEL-5),GI50 (SF-268),GI50 (TK-10),GI50 (HT-29),GI50 (K562),GI50 (OVCAR-3),GI50 (OVCAR-5),GI50 (KM12),GI50 (NCI-H460),GI50 (SF-539),GI50 (SW-620)
O=C(Nc1ccc2cc3ccccc3cc2c1)c1cc2c(cc1Cl)Sc1nccn1S2(=O)=O,87.3 µM (inactive),64.9 µM (inactive),15.9 µM (inactive),68.5 µM (inactive),> 100 µM (inactive),13.6 µM (inactive),25.1 µM (inactive),46.5 µM (inactive),5.48 µM (inactive),7.93 µM (inactive),15.3 µM (inactive),16 µM (inactive),18.9 µM (inactive),10.8 µM (inactive),> 100 µM (inactive),21.7 µM (inactive),33.7 µM (inactive),28.7 µM (inactive),7.8 µM (inactive),13.9 µM (inactive)
O=C(/C=C/c1ccccc1)CSc1nc2ccc(I)cc2c(=O)n1Cc1ccccc1,17.5 µM (inactive),35.2 µM (inactive),7.26 µM (inactive),0.13 µM (active),29.6 µM (inactive),39.9 µM (inactive),42.6 µM (inactive),18.1 µM (inactive),26.5 µM (inactive),12.7 µM (inactive),14.8 µM (inactive),28.8 µM (inactive),26.3 µM (inactive),13.9 µM (inactive),12.4 µM (inactive),> 100 µM (inactive),14.5 µM (inactive),15.6 µM (inactive),39.9 µM (inactive),38.6 µM (inactive)
Cc1cccc(/C=N\NC(=S)N2CCCCC2)n1,< 0.01 µM (active),0.383 µM (active),< 0.01 µM (active),0.216 µM (active),0.685 µM (active),0.158 µM (active),0.665 µM (active),0.0689 µM (active),< 0.01 µM (active),0.0229 µM (active),0.0451 µM (active),0.0156 µM (active),< 0.01 µM (active),< 0.01 µM (active),< 0.01 µM (active),< 0.01 µM (active),0.13 µM (active),0.22 µM (active),0.156 µM (active),0.334 µM (active)
O=C(/C=C/c1ccc(OCc2cccc(Cl)c2)cc1)NO,14 µM (inactive),13.1 µM (inactive),11.9 µM (inactive),4.78 µM (inactive),17.9 µM (inactive),18.9 µM (inactive),18 µM (inactive),11.2 µM (inactive),15 µM (inactive),16.4 µM (inactive),24.3 µM (inactive),20.9 µM (inactive),13.6 µM (inactive),16.6 µM (inactive),19.2 µM (inactive),13.9 µM (inactive),16.5 µM (inactive),15.9 µM (inactive),17.2 µM (inactive),10.1 µM (inactive)
CC1(C)[C@@H]2CC[C@]1(C)[C@H](OC(=O)/C=C/c1ccccc1)C2,17.1 µM (inactive),21.2 µM (inactive),27.7 µM (inactive),19.2 µM (inactive),34.9 µM (inactive),30.8 µM (inactive),19.8 µM (inactive),21.7 µM (inactive),17.7 µM (inactive),16.7 µM (inactive),17.3 µM (inactive),36.9 µM (inactive),16.6 µM (inactive),19.9 µM (inactive),< 0.01 µM (active),19.6 µM (inactive),20.8 µM (inactive),29 µM (inactive),20.7 µM (inactive),15.5 µM (inactive)
COc1cc2c(cc1OC)/C(=C\c1ccccc1N)C(=O)OC2,12 µM (inactive),16.3 µM (inactive),18.6 µM (inactive),15.5 µM (inactive),27.7 µM (inactive),32.1 µM (inactive),16.7 µM (inactive),16.1 µM (inactive),18.5 µM (inactive),17.8 µM (inactive),20.9 µM (inactive),20.6 µM (inactive),11.8 µM (inactive),3.02 µM (inactive),18.7 µM (inactive),20 µM (inactive),13.9 µM (inactive),14.7 µM (inactive),15.7 µM (inactive),4 µM (inactive)
